# From ChEMBL document CHEMBL1150931, “10-Oximeguanacone, the first nitrogenated acetogenin derivative found to be a potent inhibitor of mitochondrial complex I” (J Nat Prod, 1998)
# Assays:
# [1] = Inhibition of NADH-oxidase activity of electron transport protein complex 1 in submitochondrial particles of bovine heart; set-up: species or system Bos taurus
# [2] = Inhibition of NADH-ubiquinone oxidoreductase activity of electron transport protein complex 1 in submitochondrial particles of bovine heart; set-up: species or system Bos taurus
SMILES,IC50 [1] [nM],IC50 [2] [nM]
CCCCCCCCCC[C@H](O)[C@H]1CC[C@H]([C@H]2CC[C@H]([C@H](O)CCCC/C(CCCCCCCC3=C[C@H](C)OC3=O)=N\O)O2)O1,0.34,0.68
CCCCCCCCCC[C@H](O)[C@H]1CC[C@H]([C@H]2CC[C@H]([C@H](O)CCCCC(O)CCCCCCCC3=C[C@H](C)OC3=O)O2)O1 (some centres undefined),0.95,1.9
CCCCCCCCCC[C@H](O)[C@H]1CC[C@H]([C@H]2CC[C@H]([C@H](O)CCCCCCCCCCCCC3=C[C@H](C)OC3=O)O2)O1 [BULLANIN],0.32,0.44
CCCCCCCCCC[C@H](O)[C@H]1CC[C@H]([C@H]2CC[C@H]([C@H](O)CCCCC(=O)CCCCCCCC3=C[C@H](C)OC3=O)O2)O1 [GUANACONE],1.52,2.07
CCCCC[C@H](O)CCCC[C@H](O)[C@H]1CC[C@H]([C@H]2CC[C@H]([C@H](O)CCCCCCCCCCCCC3=C[C@H](C)OC3=O)O2)O1 [MOTRILIN],0.41,0.81
CCCCCCCCCC[C@H](O)[C@@H]1CC[C@H]([C@H]2CC[C@@H]([C@H](O)CCCCCCCC[C@@H](O)CC3=C[C@H](C)OC3=O)O2)O1 [ROLLIMEMBRIN],0.33,0.83
CCCCCCCCCC[C@H](O)[C@H]1CC[C@H]([C@H]2CC[C@H]([C@H](O)CCCCCCCCCCC(O)CC3=C[C@H](C)OC3=O)O2)O1 (some centres undefined) [rolliniastatin-2],0.51,0.61
